Test systems include LXFL 529; XF498; M19-MEL; HOP-18; SNB-78; DLD-1; DMS-273; RXF 631; KM-20L2.
What all share (experiment): inhibition of tumour cell growth, NCI panel, 48 h

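Five compound concentrations were applied to cells in 96-well plates for 48 hours; endpoints were derived by simple linear interpolation of the resulting dose-response curve. GI50 = concentration required for 50% inhibition of growth.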 The source made the active and inactive calls. No stated cut-off is given here; in the data, active = GI50 up to about 1.1 µM and inactive = higher.

For the compound `O=C1/C(=C/c2ccccc2)CCCC/C1=C\c1ccccc1`, the GI50 was 55.2 µM (inactive) with LXFL 529; 54.5 µM (inactive) in the assay with XF498; 48.5 µM (inactive) in the assay with M19-MEL; > 100 µM (inactive) with HOP-18; > 100 µM (inactive) in the assay with SNB-78; 34.2 µM (inactive) in the assay with DLD-1. For the same compound, the GI50 in the assay on DMS-273 is 47.1 µM (inactive); with RXF 631, 52.8 µM (inactive); in the assay on KM-20L2 it was 31 µM (inactive).
Take `c1cc2c(cc1C1OCC3C(c4ccc5c(c4)OCO5)OCC13)OCO2` (configuration not stated): the GI50 in the assay with LXFL 529 was 37.8 µM (inactive); with XF498, 28.8 µM (inactive); with M19-MEL, 51.2 µM (inactive); in the assay on HOP-18, > 100 µM (inactive); in the assay on SNB-78, > 100 µM (inactive); with DLD-1 it was 65.3 µM (inactive). For the same compound, the GI50 in the assay with KM-20L2 is 35.8 µM (inactive).
As for `COC(=O)CC1NC(=O)[C@@H]1C(C)O` (some centres not stated), the GI50 in the assay with LXFL 529 was > 100 µM (inactive); in the assay on XF498 it was > 100 µM (inactive); in the assay with M19-MEL, > 100 µM (inactive); in the assay with DLD-1, > 10 µM (inactive); in the assay on DMS-273, > 100 µM (inactive); in the assay with KM-20L2, > 100 µM (inactive).
For `CCC(O)(c1ccc(OC)cc1)C(c1ccc(OCc2ccccc2)cc1)c1ccc(OCc2ccccc2)cc1` (configuration not stated), the GI50 with LXFL 529, with XF498, in the assay with M19-MEL, with SNB-78, in the assay with DLD-1 and in the assay on DMS-273 was > 100 µM (inactive) each time. The GI50 in the assay on RXF 631 and in the assay on KM-20L2 was > 100 µM (inactive) throughout.
With `O=C1c2ccccc2C(=O)c2sc(Nc3ccc(Cl)cc3)nc21`, the GI50 in the assay with LXFL 529 is 1.69 µM (inactive); with XF498, 2.16 µM (inactive); in the assay with M19-MEL, 0.388 µM (active); in the assay on HOP-18 it was 2.24 µM (inactive); with SNB-78, 3.49 µM (inactive); in the assay on DLD-1 it was 1.78 µM (inactive). Moreover, the GI50 in the assay with DMS-273 is 1.97 µM (inactive); with KM-20L2 it was 13.5 µM (inactive).
Regarding `Brc1c2nc3ccccc3nc2n2ccc3ccccc3c12`, the GI50 in the assay with LXFL 529, in the assay on XF498, in the assay on M19-MEL, with SNB-78, in the assay with DLD-1 and in the assay with DMS-273 was > 100 µM (inactive) throughout. Further, the GI50 with KM-20L2 is > 100 µM (inactive).
Regarding `COC(=O)CC(c1ccccc1)C1(c2ccccc2)SCCS1` (configuration not stated), the GI50 in the assay on LXFL 529 is 92.7 µM (inactive); in the assay with XF498 it was > 290 µM (inactive); in the assay with M19-MEL, > 290 µM (inactive); with HOP-18 it was > 290 µM (inactive); with DLD-1 it was > 290 µM (inactive); in the assay with DMS-273, 104 µM (inactive). Also, the GI50 is 161 µM (inactive) in the assay on RXF 631 and > 290 µM (inactive) in the assay on KM-20L2.
As for `Cc1ccccc1NC(=O)C(=O)CC(=O)c1sc(-n2nc(-c3ccccc3)cc2-c2ccccc2)nc1C`, the GI50 in the assay on LXFL 529, in the assay with M19-MEL, in the assay with SNB-78, in the assay with DLD-1, with DMS-273 and with RXF 631 was > 100 µM (inactive) in each case. Moreover, in the assay with KM-20L2, the GI50 was > 100 µM (inactive).
For `COC(=O)c1nn(C(=N)c2ccc(Cl)cc2)c2c1CCC2`, the GI50 in the assay on LXFL 529, in the assay with XF498, in the assay on M19-MEL, in the assay with SNB-78, in the assay with DLD-1 and in the assay on DMS-273 was > 100 µM (inactive) throughout. For the same compound, the GI50 in the assay with KM-20L2 was > 100 µM (inactive).
`Cn1nc(N)nc1N=S(C)(C)=N`: the GI50 in the assay with LXFL 529, in the assay on XF498, in the assay with HOP-18, in the assay with SNB-78, in the assay on DMS-273 and with KM-20L2 was > 100 µM (inactive) in each case.
For `CCCCN(CCCC)C(=O)/C(CC(=O)c1cccc2ccccc12)=N\NC(=O)c1cc2ccccc2cc1O`, the GI50 in the assay on LXFL 529 is 27.3 µM (inactive); in the assay on XF498 it was 20 µM (inactive); with M19-MEL, 20.4 µM (inactive); with SNB-78, 24.7 µM (inactive); in the assay with DLD-1 it was 23.4 µM (inactive); with RXF 631, 26.7 µM (inactive). The GI50 in the assay with KM-20L2 is 22.1 µM (inactive).
`C=CCC1(CN(C)C)CC/C(=C\c2ccc3c(c2)OCO3)C1=O` (configuration not stated): the GI50 with LXFL 529 was 34.5 µM (inactive); in the assay on M19-MEL, 39.6 µM (inactive); with HOP-18 it was > 100 µM (inactive); with SNB-78, > 100 µM (inactive); with DLD-1, 27.7 µM (inactive); with DMS-273 it was 47.6 µM (inactive). Further, the results for the GI50 in the assay with RXF 631 and in the assay on KM-20L2 were 25.4 µM (inactive) and 28.9 µM (inactive), respectively.
Turning to `COC1C=COC2(C)Oc3c(C)c(O)c4c(O)c(c(/C=N/N5CCN(N)CC5)c(O)c4c3C2=O)NC(=O)C(C)=CC=CC(C)C(O)C(C)C(O)C(C)C(OC(C)=O)C1C` (configuration not stated), the GI50 in the assay on LXFL 529 is 63.4 µM (inactive); in the assay with M19-MEL it was 42 µM (inactive); with SNB-78, 88.1 µM (inactive); with DLD-1, 82.6 µM (inactive); with DMS-273, > 100 µM (inactive); with KM-20L2, > 100 µM (inactive).
As for `O=C1CCCCCCCCCCC(=O)C2CCOCCOCCOCCC1Cc1cccc(n1)C2`, the GI50 in the assay with LXFL 529 was 59.8 µM (inactive); with XF498, 59.7 µM (inactive); in the assay on M19-MEL, > 100 µM (inactive); with SNB-78, 79.6 µM (inactive); in the assay on DLD-1, > 100 µM (inactive); with DMS-273, 54.5 µM (inactive). Besides, the GI50 was 80.4 µM (inactive) in the assay with RXF 631 and > 100 µM (inactive) with KM-20L2.
On to `O=C1C(=O)N(c2cc(Cl)ccc2Cl)C(=O)C(=O)C1c1nc2ccccc2s1`, for which the GI50 in the assay with LXFL 529 was 82.2 µM (inactive); with XF498 it was > 100 µM (inactive); with M19-MEL it was > 100 µM (inactive); in the assay with SNB-78, > 100 µM (inactive); in the assay on DLD-1 it was > 100 µM (inactive); with DMS-273 it was > 100 µM (inactive). Moreover, the GI50 in the assay on KM-20L2 is > 100 µM (inactive).
On to `CN(C)C(=S)/N=c1\ss/c(=N\C(=S)N(C)C)n1-c1ccc2c(c1)OCO2`, for which the GI50 in the assay on DMS-273 and in the assay on KM-20L2 was > 100 µM (inactive) throughout.
Regarding `COC(=O)C(CC(=O)c1c[nH]c2ccccc12)c1c[nH]c2ccccc12` (configuration not stated), the GI50 with XF498 was 17.9 µM (inactive); in the assay on M19-MEL, > 10 µM (inactive); in the assay with SNB-78, 22.2 µM (inactive); in the assay with DLD-1 it was 30.8 µM (inactive); in the assay with DMS-273, 13.5 µM (inactive); in the assay with RXF 631, 15.8 µM (inactive). Besides, in the assay on KM-20L2, the GI50 is 17.9 µM (inactive).
`COc1cc2c[n+](C)c3c4cc(OC)c(OC(C)C)cc4ccc3c2cc1OC`: the GI50 is 7.35 µM (inactive) in the assay with LXFL 529; 18.4 µM (inactive) in the assay on M19-MEL; 49.7 µM (inactive) in the assay on HOP-18; 50 µM (inactive) in the assay with SNB-78; > 100 µM (inactive) in the assay with DLD-1; 27.2 µM (inactive) with DMS-273. Moreover, the GI50 in the assay with KM-20L2 is 62.7 µM (inactive).
Turning to `CC(C)(C)C(=O)/C=C/c1cccc(Oc2ccccc2)c1`, the GI50 is 18.1 µM (inactive) in the assay with LXFL 529; 18.8 µM (inactive) in the assay with XF498; 16.9 µM (inactive) with M19-MEL; 16.6 µM (inactive) in the assay on HOP-18; 14.2 µM (inactive) in the assay on SNB-78; 11.5 µM (inactive) in the assay with DLD-1. Further, the results for the GI50 in the assay with RXF 631 and in the assay on KM-20L2 were 28.1 µM (inactive) and 14.3 µM (inactive), respectively.
Take `C[n+]1c2ccccc2c(CNC(CCC(N)=O)C(=O)O)c2ccccc21` (configuration not stated): the GI50 in the assay on LXFL 529 was 0.817 µM (active); in the assay on XF498, 2 µM (inactive); in the assay on M19-MEL, 2.18 µM (inactive); with HOP-18, 2.09 µM (inactive); in the assay with SNB-78, 6.5 µM (inactive); with DLD-1, 0.475 µM (active). Moreover, the values for the GI50 in the assay with DMS-273 and in the assay on KM-20L2 were 1.21 µM (inactive) and 1.1 µM (active), respectively.
Take `CN(C)CCCOc1ccc(/C=C2/CCC/C(=C/c3ccc(OCCCN(C)C)cc3)C2=O)cc1`: the GI50 was 1.89 µM (inactive) with LXFL 529; 3.61 µM (inactive) in the assay on HOP-18; 3.25 µM (inactive) with SNB-78; 1.5 µM (inactive) with DLD-1; 1.45 µM (inactive) with DMS-273; 0.232 µM (active) in the assay on KM-20L2.
Consider `Cc1ccccc1C(C#N)C(=O)C(=O)Nc1cccc(Cl)c1` (configuration not stated), for which the GI50 in the assay on XF498 was 71.4 µM (inactive); in the assay with M19-MEL it was 26.4 µM (inactive); in the assay on SNB-78, > 100 µM (inactive); with DLD-1 it was > 100 µM (inactive); with DMS-273, > 100 µM (inactive); in the assay on RXF 631, > 100 µM (inactive). Further, the GI50 in the assay on KM-20L2 was > 100 µM (inactive).
Regarding `CC1(C)OC(=O)C(c2cccs2)C(=O)O1`, the GI50 with LXFL 529, in the assay with XF498, with HOP-18, in the assay with SNB-78, in the assay with DLD-1 and with DMS-273 was > 100 µM (inactive) each time. In the assay with KM-20L2, the GI50 is > 100 µM (inactive).
As for `COC1[C@@H](OC(C)=O)[C@@H](NC(=O)C(Cl)(Cl)Cl)C(I)[C@@H](N2C(=O)c3ccccc3C2=O)[C@H]1OC` (some centres not stated), the GI50 with LXFL 529, with HOP-18, in the assay on SNB-78, with DLD-1, in the assay on DMS-273 and in the assay on KM-20L2 was > 100 µM (inactive) each time.
Take `CN(c1n[n+]2c(-c3ccccc3)csc2s1)c1n[n+]2c(-c3ccccc3)csc2s1`: the GI50 in the assay with LXFL 529 is 87.3 µM (inactive); in the assay with XF498, > 100 µM (inactive); in the assay on M19-MEL, > 100 µM (inactive); in the assay with HOP-18 it was > 100 µM (inactive); in the assay on SNB-78 it was > 100 µM (inactive); in the assay with DLD-1, > 100 µM (inactive). In addition, the GI50 with DMS-273 and with KM-20L2 was > 100 µM (inactive) each time.
In the case of `COc1ccc(/C=C2\CCC(CCN(C)C)(C3=CCCC3)C2=O)cc1` (configuration not stated), the GI50 was 16.7 µM (inactive) with LXFL 529; 15.1 µM (inactive) in the assay on M19-MEL; 14.1 µM (inactive) with HOP-18; 21.8 µM (inactive) with SNB-78; 26.4 µM (inactive) with DLD-1; 17.1 µM (inactive) in the assay with DMS-273. In addition, the GI50 in the assay with KM-20L2 is 14.1 µM (inactive).
